Data: patent US20020137929A1, “1 - (3-heterocyclylphenyl) isothiourea, -isourea, -guanidine and -amidine herbicidal agents” (Intellectual Property Department, BASF Aktiengesellschaft, priority 1998, published 2002)

Legend:
ABUTH (Velvetleaf) [1] = assay: Postemergence herbicidal evaluation; assay type: in vivo, Abutilon theophrasti; conditions: for ABUTH herbicidal rating: postemergence
In short: (§1)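 ~2-wk seedlings; postemergence spray, 40 psi; vehicle 1:1 acetone:water + 0.5% Tween 20; rate ≈0.0156–0.500 kg/ha; greenhouse hold; scored 4–5 wk after treatment, 0–9 scale vs control; repeat tests averaged.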

[2] = system: IPOHE (Morningglory, Ivyleaf); assay: Postemergence herbicidal evaluation; assay type: in vivo, Ipomoea hederacea; conditions: for IPOHE herbicidal rating: postemergence
In short: as §1

SETVI (Foxtail, Green) = assay: Postemergence herbicidal evaluation; assay type: in vivo, Setaria viridis; conditions: for SETVI herbicidal rating: postemergence
In short: as §1

[3] = system: GLXMAW (Soybean, Williams); assay: Postemergence herbicidal evaluation; assay type: in vivo, Glycine max, (L.) Merr. cv Williams; conditions: for GLXMAW herbicidal rating: postemergence
In short: as §1

ZEAMX (Corn, Field) = assay: Postemergence herbicidal evaluation; assay type: in vivo, Zea mays; conditions: for ZEAMX herbicidal rating: postemergence
In short: as §1

ABUTH (Velvetleaf) [4] = assay: Preemergence herbicidal evaluation; assay type: in vivo, Abutilon theophrasti; conditions: rated 4-5 weeks after treatment
In short: (§2)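 Seeds were mixed with potting soil and planted on about one inch of soil, then sprayed with test compound in aqueous acetone at about 0.0156 to 0.500 kg per hectare. Plants grew under standard greenhouse care and were visually rated 0-9 against untreated controls 4-5 weeks post-treatment.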

AMBEL (Ragweed, Common) = assay: Preemergence herbicidal evaluation; assay type: in vivo, Ambrosia artemisifolia; conditions: rated 4-5 weeks after treatment
In short: as §2

CASOB (Sicklepod) = assay: Preemergence herbicidal evaluation; assay type: in vivo, Cassia obtusifolia; conditions: rated 4-5 weeks after treatment
In short: as §2

[5] = system: IPOHE (Morningglory, Ivyleaf); assay: Preemergence herbicidal evaluation; assay type: in vivo, Ipomoea hederacea; conditions: rated 4-5 weeks after treatment
In short: as §2

ECHCG (Barnyardgrass) = assay: Preemergence herbicidal evaluation; assay type: in vivo, Echinochloa crus-galli; conditions: rated 4-5 weeks after treatment
In short: as §2

[6] = system: ECHORC (Watergrass (Calif.)); assay: Preemergence weed control under flooded paddy conditions; assay type: in vivo, Echinochloa oryzoides; conditions: rated 3-4 weeks after treatment
In short: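 Flooded-pot preemergence screen with silt loam and seeds in the upper 0.5 cm. Dose about 0.0313 to 0.500 kg/ha, delivered into flood water; visual 0-9 score after 3 to 4 weeks.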

CYPSE (Flatsedge) = assay: as above; assay type: in vivo, Cyperus serotinus; conditions: rated 3-4 weeks after treatment
In short: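 Values are visual 0-9 scores against a control for a preemergence application into paddy flood water at about 0.0313 to 0.500 kg/ha. Greenhouse duration was three to four weeks.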

[7] = system: ECHORC (Watergrass (Calif.)); assay: Postemergence weed control under flooded paddy conditions; assay type: in vivo, Echinochloa oryzoides; conditions: postemergence weeds, 3-4 weeks after treatment
In short: (§3)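 With weeds 3 to 5 cm tall and rice at the 1.5 to 2.5 leaf stage, containers were flooded and water held 1.5 to 3 cm above soil. Compounds in 50/50 v/v aqueous/acetone went into the flood water at about 0.0313 to 0.500 kg/ha a.i. Effects were visually rated 0–9 against controls after three to four weeks in the greenhouse.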

CYPIR (Rice Flatsedge) = assay: as above; assay type: in vivo, Cyperus iria; conditions: postemergence weeds, 3-4 weeks after treatment
In short: as §3

CCOC(=O)CN1C(=O)C(C)SC1=Nc1cc(-n2c(=O)cc(C(F)(F)F)n(C)c2=O)c(F)cc1Cl (stereo not shown) [Compound 12]
ABUTH herbicidal rating (ABUTH (Velvetleaf) [1]; rate 0.0156 kg/ha): 9.0 | ABUTH herbicidal rating (ABUTH (Velvetleaf) [1]; rate 0.0313 kg/ha): 9.0 | ABUTH herbicidal rating (ABUTH (Velvetleaf) [1]; rate 0.0625 kg/ha): 9.0 | ABUTH herbicidal rating (ABUTH (Velvetleaf) [1]; rate 0.1250 kg/ha): 9.0 | IPOHE herbicidal rating ([2]; rate 0.0156 kg/ha): 9.0 | IPOHE herbicidal rating ([2]; rate 0.0313 kg/ha): 9.0 | IPOHE herbicidal rating ([2]; rate 0.0625 kg/ha): 9.0 | IPOHE herbicidal rating ([2]; rate 0.1250 kg/ha): 9.0 | SETVI herbicidal rating (SETVI (Foxtail, Green); rate 0.0156 kg/ha): 0.0 | SETVI herbicidal rating (SETVI (Foxtail, Green); rate 0.0313 kg/ha): 4.0 | SETVI herbicidal rating (SETVI (Foxtail, Green); rate 0.0625 kg/ha): 9.0 | SETVI herbicidal rating (SETVI (Foxtail, Green); rate 0.1250 kg/ha): 9.0 | GLXMAW herbicidal rating ([3]; rate 0.0156 kg/ha): 5.0 | GLXMAW herbicidal rating ([3]; rate 0.0313 kg/ha): 7.0 | GLXMAW herbicidal rating ([3]; rate 0.0625 kg/ha): 8.5 | GLXMAW herbicidal rating ([3]; rate 0.1250 kg/ha): 8.0 | ZEAMX herbicidal rating (ZEAMX (Corn, Field); rate 0.0156 kg/ha): 6.5 | ZEAMX herbicidal rating (ZEAMX (Corn, Field); rate 0.0313 kg/ha): 7.0 | ZEAMX herbicidal rating (ZEAMX (Corn, Field); rate 0.0625 kg/ha): 7.5 | ZEAMX herbicidal rating (ZEAMX (Corn, Field); rate 0.1250 kg/ha): 8.0 | ABUTH preemergence herbicidal rating (ABUTH (Velvetleaf) [4]; rate 0.0156 kg/ha): 7.5 | ABUTH preemergence herbicidal rating (ABUTH (Velvetleaf) [4]; rate 0.0313 kg/ha): 9.0 | ABUTH preemergence herbicidal rating (ABUTH (Velvetleaf) [4]; rate 0.0625 kg/ha): 9.0 | ABUTH preemergence herbicidal rating (ABUTH (Velvetleaf) [4]; rate 0.1250 kg/ha): 9.0 | ABUTH preemergence herbicidal rating (ABUTH (Velvetleaf) [4]; rate 0.2500 kg/ha): 9.0 | AMBEL preemergence herbicidal rating (AMBEL (Ragweed, Common); rate 0.0156 kg/ha): 0.0 | AMBEL preemergence herbicidal rating (AMBEL (Ragweed, Common); rate 0.0313 kg/ha): 4.5 | AMBEL preemergence herbicidal rating (AMBEL (Ragweed, Common); rate 0.0625 kg/ha): 9.0 | AMBEL preemergence herbicidal rating (AMBEL (Ragweed, Common); rate 0.1250 kg/ha): 9.0 | AMBEL preemergence herbicidal rating (AMBEL (Ragweed, Common); rate 0.2500 kg/ha): 9.0 | CASOB preemergence herbicidal rating (CASOB (Sicklepod); rate 0.0156 kg/ha): 0.0 | CASOB preemergence herbicidal rating (CASOB (Sicklepod); rate 0.0313 kg/ha): 0.0 | CASOB preemergence herbicidal rating (CASOB (Sicklepod); rate 0.0625 kg/ha): 4.5 | CASOB preemergence herbicidal rating (CASOB (Sicklepod); rate 0.1250 kg/ha): 4.5 | CASOB preemergence herbicidal rating (CASOB (Sicklepod); rate 0.2500 kg/ha): 6.0 | IPOHE preemergence herbicidal rating ([5]; rate 0.0156 kg/ha): 4.5 | IPOHE preemergence herbicidal rating ([5]; rate 0.0313 kg/ha): 9.0 | IPOHE preemergence herbicidal rating ([5]; rate 0.0625 kg/ha): 9.0 | IPOHE preemergence herbicidal rating ([5]; rate 0.1250 kg/ha): 9.0 | IPOHE preemergence herbicidal rating ([5]; rate 0.2500 kg/ha): 9.0 | ECHCG preemergence herbicidal rating (ECHCG (Barnyardgrass); rate 0.0156 kg/ha): 2.0 | ECHCG preemergence herbicidal rating (ECHCG (Barnyardgrass); rate 0.0313 kg/ha): 5.0 | ECHCG preemergence herbicidal rating (ECHCG (Barnyardgrass); rate 0.0625 kg/ha): 6.0 | ECHCG preemergence herbicidal rating (ECHCG (Barnyardgrass); rate 0.1250 kg/ha): 9.0 | ECHCG preemergence herbicidal rating (ECHCG (Barnyardgrass); rate 0.2500 kg/ha): 9.0 | Herbicidal rating ECHORC ([6]; 0.0313 kg/ha): 5.0 | Herbicidal rating ECHORC ([6]; 0.0625 kg/ha): 9.0 | Herbicidal rating ECHORC ([6]; 0.1250 kg/ha): 8.5 | Herbicidal rating ECHORC ([6]; 0.2500 kg/ha): 9.0 | Herbicidal rating CYPSE (CYPSE (Flatsedge); 0.0313 kg/ha): 1.0 | Herbicidal rating CYPSE (CYPSE (Flatsedge); 0.0625 kg/ha): 3.0 | Herbicidal rating CYPSE (CYPSE (Flatsedge); 0.1250 kg/ha): 1.0 | Herbicidal rating CYPSE (CYPSE (Flatsedge); 0.2500 kg/ha): 6.0 | Herbicidal rating ECHORC ([7]; rate 0.0313 kg/ha): 5.0 | Herbicidal rating ECHORC ([7]; rate 0.0625 kg/ha): 9.0 | Herbicidal rating ECHORC ([7]; rate 0.1250 kg/ha): 8.5 | Herbicidal rating ECHORC ([7]; rate 0.2500 kg/ha): 9.0 | Herbicidal rating CYPIR (CYPIR (Rice Flatsedge); rate 0.0313 kg/ha): 0.0 | Herbicidal rating CYPIR (CYPIR (Rice Flatsedge); rate 0.0625 kg/ha): 0.0 | Herbicidal rating CYPIR (CYPIR (Rice Flatsedge); rate 0.1250 kg/ha): 1.0 | Herbicidal rating CYPIR (CYPIR (Rice Flatsedge); rate 0.2500 kg/ha): 0.0

CCOC(=O)COc1ccccc1CC1S/C(=N/c2cc(-n3c(=O)cc(C(F)(F)F)n(C)c3=O)c(F)cc2Cl)N(CC(=O)OCC)C1=O (stereo not shown) [Compound 42, 2-{{2-Chloro-5-[3,6-dihydro-3-methyl-2,6-dioxo-4-(trifluoromethyl)-1(2H)-pyrimidinyl]-4-fluoro-phenyl}imino}-5-(o-hydroxybenzyl)-4-oxo-3-thiazolidineacetic acid, ethyl ester, ester with ethyl glycolate]
Postemergence herbicidal rating ABUTH (ABUTH (Velvetleaf) [1]; Rate 0.0158 kg/ha): 9.0 | Postemergence herbicidal rating ABUTH (ABUTH (Velvetleaf) [1]; Rate 0.0315 kg/ha): 9.0 | Postemergence herbicidal rating ABUTH (ABUTH (Velvetleaf) [1]; Rate 0.0630 kg/ha): 9.0 | Postemergence herbicidal rating IPOHE ([2]; Rate 0.0158 kg/ha): 9.0 | Postemergence herbicidal rating IPOHE ([2]; Rate 0.0315 kg/ha): 9.0 | Postemergence herbicidal rating IPOHE ([2]; Rate 0.0630 kg/ha): 9.0 | Postemergence herbicidal rating SETVI (SETVI (Foxtail, Green); Rate 0.0158 kg/ha): 0.0 | Postemergence herbicidal rating SETVI (SETVI (Foxtail, Green); Rate 0.0315 kg/ha): 1.0 | Postemergence herbicidal rating SETVI (SETVI (Foxtail, Green); Rate 0.0630 kg/ha): 1.0 | Postemergence herbicidal rating GLXMAW ([3]; Rate 0.0158 kg/ha): 5.5 | Postemergence herbicidal rating GLXMAW ([3]; Rate 0.0315 kg/ha): 6.0 | Postemergence herbicidal rating GLXMAW ([3]; Rate 0.0630 kg/ha): 6.5 | Postemergence herbicidal rating ZEAMX (ZEAMX (Corn, Field); Rate 0.0158 kg/ha): 4.5 | Postemergence herbicidal rating ZEAMX (ZEAMX (Corn, Field); Rate 0.0315 kg/ha): 4.5 | Postemergence herbicidal rating ZEAMX (ZEAMX (Corn, Field); Rate 0.0630 kg/ha): 4.5 | Preemergence herbicidal rating ABUTH (ABUTH (Velvetleaf) [4]; rate 0.0313 kg/ha): 1.0 | Preemergence herbicidal rating ABUTH (ABUTH (Velvetleaf) [4]; rate 0.0625 kg/ha): 1.0 | Preemergence herbicidal rating ABUTH (ABUTH (Velvetleaf) [4]; rate 0.1250 kg/ha): 9.0 | Preemergence herbicidal rating ABUTH (ABUTH (Velvetleaf) [4]; rate 0.2500 kg/ha): 9.0 | Preemergence herbicidal rating AMBEL (AMBEL (Ragweed, Common); rate 0.0313 kg/ha): 0.0 | Preemergence herbicidal rating AMBEL (AMBEL (Ragweed, Common); rate 0.0625 kg/ha): 0.0 | Preemergence herbicidal rating AMBEL (AMBEL (Ragweed, Common); rate 0.1250 kg/ha): 0.0 | Preemergence herbicidal rating AMBEL (AMBEL (Ragweed, Common); rate 0.2500 kg/ha): 6.0 | Preemergence herbicidal rating CASOB (CASOB (Sicklepod); rate 0.0313 kg/ha): 0.0 | Preemergence herbicidal rating CASOB (CASOB (Sicklepod); rate 0.0625 kg/ha): 1.0 | Preemergence herbicidal rating CASOB (CASOB (Sicklepod); rate 0.1250 kg/ha): 0.0 | Preemergence herbicidal rating CASOB (CASOB (Sicklepod); rate 0.2500 kg/ha): 0.0 | Preemergence herbicidal rating IPOHE ([5]; rate 0.0313 kg/ha): 0.0 | Preemergence herbicidal rating IPOHE ([5]; rate 0.0625 kg/ha): 0.0 | Preemergence herbicidal rating IPOHE ([5]; rate 0.1250 kg/ha): 0.0 | Preemergence herbicidal rating IPOHE ([5]; rate 0.2500 kg/ha): 0.0 | Preemergence herbicidal rating ECHCG (ECHCG (Barnyardgrass); rate 0.0313 kg/ha): 0.0 | Preemergence herbicidal rating ECHCG (ECHCG (Barnyardgrass); rate 0.0625 kg/ha): 0.0 | Preemergence herbicidal rating ECHCG (ECHCG (Barnyardgrass); rate 0.1250 kg/ha): 0.0 | Preemergence herbicidal rating ECHCG (ECHCG (Barnyardgrass); rate 0.2500 kg/ha): 0.0 | Herbicidal rating ECHORC ([6]; 0.0313 kg/ha): 5.0 | Herbicidal rating ECHORC ([6]; 0.0625 kg/ha): 5.0 | Herbicidal rating ECHORC ([6]; 0.1250 kg/ha): 5.0 | Herbicidal rating ECHORC ([6]; 0.2500 kg/ha): 6.0 | Herbicidal rating CYPSE (CYPSE (Flatsedge); 0.0313 kg/ha): 0.0 | Herbicidal rating CYPSE (CYPSE (Flatsedge); 0.0625 kg/ha): 0.0 | Herbicidal rating CYPSE (CYPSE (Flatsedge); 0.1250 kg/ha): 0.0 | Herbicidal rating CYPSE (CYPSE (Flatsedge); 0.2500 kg/ha): 0.0 | Herbicidal rating ECHORC ([7]; rate 0.0313 kg/ha): 5.0 | Herbicidal rating ECHORC ([7]; rate 0.0625 kg/ha): 5.0 | Herbicidal rating ECHORC ([7]; rate 0.1250 kg/ha): 5.0 | Herbicidal rating ECHORC ([7]; rate 0.2500 kg/ha): 6.0 | Herbicidal rating CYPIR (CYPIR (Rice Flatsedge); rate 0.0313 kg/ha): 0.0 | Herbicidal rating CYPIR (CYPIR (Rice Flatsedge); rate 0.0625 kg/ha): 0.0 | Herbicidal rating CYPIR (CYPIR (Rice Flatsedge); rate 0.1250 kg/ha): 0.0 | Herbicidal rating CYPIR (CYPIR (Rice Flatsedge); rate 0.2500 kg/ha): 0.0
